Experimental data: patent US20230330234A1, “HYPERBRANCHED POLYESTER POLYOL DERIVATIVE AS DRUG SOLUBILIZER” (FREIE UNIVERSITÄT BERLIN, priority 2020, published 2023)
Converted amounts (≈) assume the structure as drawn. Where two headings read alike, the source gives them in different places.

Key:
physchem = conditions: aqueous with cosolvent or surfactant or cyclodextrin, thermodynamic from solid
[1] = Size and Z-potential investigation by DLS in PB; format: physicochemical; conditions: h(PG-co-PCL)60S0.95 with solubilized drug
Description: (§1) The following tables (Table 5, Table 6 and Table 7) show the results of the performed analyses. In this context, h(PG-co-PCL)60S0.95 was used as hyperbranched polyester polyol derivative. Its non-sulfated backbone has a molecular weight of 60 kDa.

[2] = Carrying potential of h(PG-co-PCL)60S0.95 by elemental analysis; format: physicochemical; conditions: calculated by elemental analysis
Description: The carrying potential (CP) of the polymer (solubilizing agent) is obtained as the ratio of the loaded and solubilized drug to the amount of solubilizing agent (Eq. 1).
For drugs presenting an absorption band at wavelength lower than 400 nm, the UV-VIS approach is not suitable, due to drug signals overlapping with signals of the solubilizing agent. Therefore, elemental analysis is chosen as alternative approach. The drugs chosen for the solubilization and entrapment contain nitrogen atoms, which are not present in the polymer structure. Via the quantification of the nitrogen content in the sample, it is possible to determine the amount of drug in it. For the loading quantification, the same equation is used as in the previous case.
as §1, with “kDa. The polyester polyol derivative has a sulfation degree of 95%.” for “kDa.”

SMILES | solubility (Solubility in water; Solubility in water) [µg/mL] | solubility at 18 h (physchem) [µg/mL] | also measured
CC(C)(C)C[C@@H]1N[C@@H](C(=O)N[C@H]2CC[C@H](O)CC2)[C@H](c2cccc(Cl)c2F)[C@]12C(=O)Nc1cc(Cl)ccc12 [SAR405838] | 2 (≈ 3.56 µM) | > 300 | –
CCCc1cc(C)[nH]c(=O)c1CNC(=O)c1cc(-c2ccnc(N3CCN(C)CC3)c2)cc2c1cnn2C(C)C [GSK343] | 1 (≈ 1.85 µM) | > 300 | –
CN1CCN(c2ccc(C(=O)Nc3n[nH]c4ccc(Cc5cc(F)cc(F)c5)cc34)c(NC3CCOCC3)c2)CC1 [Entrectinib] | 9 (≈ 16.1 µM) | > 300 | –
CCN(CCCOc1ccc2c(Nc3cc(CC(=O)Nc4cccc(F)c4)n[nH]3)ncnc2c1)CCOP(=O)(O)O [Barasertib] | 50 (≈ 85.1 µM) | > 300 | –
CNC(=O)c1cc(Oc2ccc(NC(=O)Nc3ccc(Cl)c(C(F)(F)F)c3)c(F)c2)ccn1 [Regorafenib] | – | > 300 | Solubility in water (Solubility in water): 1 µg/mL (≈ 2.07 µM)
Cn1ncc(Cl)c1-c1cc(C(=O)N[C@H](CN)Cc2cccc(F)c2)sc1Cl [GSK2110183] | 7 (≈ 16.4 µM) | > 300 | –
COc1ncc(-c2nc3c(n2C(C)C)[C@H](c2ccc(Cl)cc2)N(c2cc(Cl)cn(C)c2=O)C3=O)c(OC)n1 [Siremadlin] | 1 (≈ 1.8 µM) | > 300 | –
CCOc1cc2ncc(C#N)c(Nc3ccc(OCc4ccccn4)c(Cl)c3)c2cc1NC(=O)/C=C/CN(C)C [Neratinib] | 6 (≈ 10.8 µM) | > 300 | –
COc1ccc([C@@H](O)c2cc(-c3ncnc4cc(N5CCOCC5)ccc34)c(F)cc2Cl)nn1 [Nedisertib] | 80 (≈ 166 µM) | > 300 | –
CNCc1ccc(-c2[nH]c3cc(F)cc4c3c2CCNC4=O)cc1 [Rucaparib] | 10 (≈ 30.9 µM) | > 300 | –
Nc1ccccc1NC(=O)c1ccc(CNC(=O)OCc2cccnc2)cc1 [Entinostat] | 5 (≈ 13.3 µM) | > 300 | –
Cc1ccc(C(=O)Nc2ccc(CN3CCN(C)CC3)c(C(F)(F)F)c2)cc1C#Cc1cnc2cccnn12 [Ponatinib] | 2 (≈ 3.76 µM) | > 300 | –
O=C(/C=C/c1cccc(S(=O)(=O)Nc2ccccc2)c1)NO [Belinostat] | 30 (≈ 94.2 µM) | > 300 | –
CC(C)Nc1cc(-c2c[nH]c(C(=O)N[C@H](CO)c3cccc(Cl)c3)c2)c(Cl)cn1 [Ulixertinib] | 4 (≈ 9.23 µM) | > 300 | –
COc1ccc(-c2nc(N3CCOCC3)c3sc(CN(C)c4ncc(C(=O)NO)cn4)cc3n2)cn1 [Fimepinostat] | 2 (≈ 3.93 µM) | > 300 | –
COc1cc2ncnc(Nc3ccc(F)c(Cl)c3)c2cc1NC(=O)/C=C/CN1CCCCC1 [Dacomitinib] | 9 (≈ 19.2 µM) | > 300 | –
Cc1nc(Nc2ncc(C(=O)Nc3c(C)cccc3Cl)s2)cc(N2CCN(CCO)CC2)n1 [Dasatinib] | – | > 300 | –
COc1cc(/C=C/C(=O)CC(=O)/C=C/c2ccc(O)c(OC)c2)ccc1O [Curcumin] | – | < 100 | Solubility in water (Solubility in water): 6 µg/mL (≈ 16.3 µM)
O=C(c1cc(Cc2n[nH]c(=O)c3ccccc23)ccc1F)N1CCN(C(=O)C2CC2)CC1 [Olaparib] | 120 (≈ 276 µM) | > 300 | –
CO[C@@H](C)Cn1c(=O)n(C)c2cnc3ccc(-c4cncc(C(C)(C)O)c4)cc3c21 [LY3023414] | 80 (≈ 197 µM) | > 300 | –
Cc1ccc(Nc2nccc(N(C)c3ccc4c(C)n(C)nc4c3)n2)cc1S(N)(=O)=O [Pazopanib] | – | > 300 | Solubility in water (Solubility in water): 40 µg/mL (≈ 91.4 µM)
N#CC[C@H](C1CCCC1)n1cc(-c2ncnc3[nH]ccc23)cn1 [Ruxolitinib] | – | > 300 | –
NC(=O)c1cccc2cn(-c3ccc([C@@H]4CCCNC4)cc3)nc12 [Niraparib] | 10 (≈ 31.2 µM) | > 300 | –
Cc1cn(-c2cc(NC(=O)c3ccc(C)c(Nc4nccc(-c5cccnc5)n4)c3)cc(C(F)(F)F)c2)cn1 [Nilotinib] | 2 (≈ 3.78 µM) | > 300 | –
Cn1nccc1Nc1nccc(-c2ccn([C@H](CO)c3ccc(Cl)c(F)c3)c(=O)c2)n1 [Ravoxertinib] | 4 (≈ 9.07 µM) | > 300 | –
CC(C)(C)c1nc(-c2cccc(NS(=O)(=O)c3c(F)cccc3F)c2F)c(-c2ccnc(N)n2)s1 [Dabrafenib] | 30 (≈ 57.7 µM) | > 300 | Size (volume) ([1]; DLS in PB, in nm (unit assumed)): 12 ± 1; Z-potential ([1]; in PB, in mV (unit assumed)): −29.6; Carrying potential [2]: 1% wt %
Nc1ncccc1-c1nc2ccc(-c3ccccc3)nc2n1-c1ccc(C2(N)CCC2)cc1 [Miransertib] | – | > 300 | solubility (Solubility in water): 60 µg/mL (≈ 139 µM)

SMILES | solubility (Solubility in water; Solubility in water) [µg/mL] | solubility at 18 h (physchem) [µg/mL] | also measured
CN(C)C1CCN(C(=O)c2ccc(NC(=O)Nc3ccc(-c4nc(N5CCOCC5)nc(N5CCOCC5)n4)cc3)cc2)CC1 [Gedatolisib] | 40 (≈ 65 µM) | > 300 | –
CC(C)Cc1ccc(C(C)C(=O)O)cc1 (centres unmarked) [Ibuprofen] | – | < 100 | –
CNC(=O)c1ccccc1Sc1ccc2c(/C=C/c3ccccn3)n[nH]c2c1 [Axitinib] | – | > 300 | Solubility in water (Solubility in water): 0.5 µg/mL (≈ 1.29 µM)
Cn1ncc(Cl)c1-c1cc(C(=O)N[C@H](CN)Cc2ccc(F)c(F)c2)oc1Cl [Uprosertib] | 30 (≈ 69.9 µM) | > 300 | –
COc1cc(C(=O)O)ccc1NC(=O)[C@@H]1N[C@@H](CC(C)(C)C)[C@](C#N)(c2ccc(Cl)cc2F)[C@H]1c1cccc(Cl)c1F [Idasanutlin] | 1 (≈ 1.62 µM) | > 300 | –
CC(C)C[C@H](NC(=O)[C@H](Cc1ccccc1)NC(=O)c1cnccn1)B(O)O [Bortezomib] | 50 (≈ 130 µM) | > 300 | –
COc1cc(Nc2c(C#N)cnc3cc(OCCCN4CCN(C)CC4)c(OC)cc23)c(Cl)cc1Cl [Bosutinib] | 10 (≈ 18.9 µM) | > 300 | –
Cn1cnc2c(F)c(Nc3ccc(Br)cc3Cl)c(C(=O)NOCCO)cc21 [Selumetinib] | 40 (≈ 87.4 µM) | > 300 | –
CC(C)NC[C@@H](C(=O)N1CCN(c2ncnc3c2[C@H](C)C[C@H]3O)CC1)c1ccc(Cl)cc1 [Ipatasertib] | 50 (≈ 109 µM) | > 300 | –
C=CC(=O)Nc1cc(Nc2nccc(-c3cn(C)c4ccccc34)n2)c(OC)cc1N(C)CCN(C)C [Osimertinib] | 20 (≈ 40 µM) | > 300 | –
CCN1[C@@H](C(=O)NC23CCC(C(=O)O)(CC2)CC3)[C@H](c2cccc(Cl)c2F)[C@]2(C(=O)Nc3cc(Cl)ccc32)C12CCCCC2 [APG-115] | 2 (≈ 3.11 µM) | > 300 | –
C=CC(=O)Nc1ccc2[nH]c(=O)n(C3CCN(Cc4ccc(-c5nc6cc[nH]c(=O)c6cc5-c5ccccc5)cc4)CC3)c2c1 [Borussertib] | – | – | Carrying potential [2]: 12% wt %
C[C@H]1Oc2cc(cnc2N)-c2c(nn(C)c2C#N)CN(C)C(=O)c2ccc(F)cc21 [Lorlatinib] | 100 (≈ 246 µM) | > 300 | –
CN(C)C/C=C/C(=O)Nc1cc2c(Nc3ccc(F)c(Cl)c3)ncnc2cc1O[C@H]1CCOC1 [Afatinib] | 10 (≈ 20.6 µM) | > 300 | –
O=C(c1ccc(F)c(F)c1Nc1ccc(I)cc1F)N1CC(O)([C@@H]2CCCCN2)C1 [Cobimetinib] | 40 (≈ 75.3 µM) | > 300 | –
CN1CC[C@@H](NC(=O)Nc2ccc(C#N)cc2)C[C@@H]1c1nc2ccccc2[nH]1 [Glasdegib] | 50 (≈ 134 µM) | > 300 | –
C=CC(=O)N1CCC[C@@H](n2nc(-c3ccc(Oc4ccccc4)cc3)c3c(N)ncnc32)C1 [Ibrutinib] | 20 (≈ 45.4 µM) | > 300 | –
COc1cc2nccc(Oc3ccc(NC(=O)C4(C(=O)Nc5ccc(F)cc5)CC4)cc3)c2cc1OC [Cabozantinib] | 2 (≈ 3.99 µM) | > 300 | –
Cn1ncnc1[C@H]1c2n[nH]c(=O)c3cc(F)cc(c23)N[C@@H]1c1ccc(F)cc1 [Talazoparib] | 100 (≈ 263 µM) | > 300 | –
C#Cc1cccc(Nc2ncnc3cc(OCCOC)c(OCCOC)cc23)c1 [Erlotinib] | 10 (≈ 25.4 µM) | > 300 | –
COC(=O)N[C@@H](C)CNc1nccc(-c2cn(C(C)C)nc2-c2cc(Cl)cc(NS(C)(=O)=O)c2F)n1 [Encorafenib] | 10 (≈ 18.5 µM) | > 300 | –
Cn1cnc2c(F)c(Nc3ccc(Br)cc3F)c(C(=O)NOCCO)cc21 [Binimetinib] | 50 (≈ 113 µM) | > 300 | –
CCCS(=O)(=O)Nc1ccc(F)c(C(=O)c2c[nH]c3ncc(-c4ccc(Cl)cc4)cc23)c1F [Vemurafenib] | 0.3 (≈ 0.612 µM) | > 300 | –
Cc1nc(NC(=O)N2CCC[C@H]2C(N)=O)sc1-c1ccnc(C(C)(C)C(F)(F)F)c1 [Alpelisib] | 5 (≈ 11.3 µM) | > 300 | –
C[C@@H]1C[C@H]2[C@@H]3CCC4=CC(=O)C=C[C@]4(C)[C@@]3(F)[C@@H](O)C[C@]2(C)[C@@]1(O)C(=O)CO [Dexamethasone] | – | < 100 | –
Nc1ccccc1NC(=O)c1ccc(CNc2nccc(-c3cccnc3)n2)cc1 [Mocetinostat] | 8 (≈ 20.2 µM) | > 300 | –
